For test [1], the target named is T1, Delta-type opioid receptor (Rattus norvegicus, UniProt P33533). Nature of the test: Compound was evaluated for the binding affinity towards Opioid receptor delta 1 in rat brain homogenates using [3H]DIDI as radioligand. In kind it is tissue-based.
Test [2] deals with Kappa-type opioid receptor (Rattus norvegicus, UniProt P34975). As to the kind of experiment: Compound was evaluated for the binding affinity towards Opioid receptor kappa 1 in rat brain homogenates using [3H]U-69593 as radioligand. In kind it is tissue-based.
Kappa-type opioid receptor, sequence (P34975 whole entry): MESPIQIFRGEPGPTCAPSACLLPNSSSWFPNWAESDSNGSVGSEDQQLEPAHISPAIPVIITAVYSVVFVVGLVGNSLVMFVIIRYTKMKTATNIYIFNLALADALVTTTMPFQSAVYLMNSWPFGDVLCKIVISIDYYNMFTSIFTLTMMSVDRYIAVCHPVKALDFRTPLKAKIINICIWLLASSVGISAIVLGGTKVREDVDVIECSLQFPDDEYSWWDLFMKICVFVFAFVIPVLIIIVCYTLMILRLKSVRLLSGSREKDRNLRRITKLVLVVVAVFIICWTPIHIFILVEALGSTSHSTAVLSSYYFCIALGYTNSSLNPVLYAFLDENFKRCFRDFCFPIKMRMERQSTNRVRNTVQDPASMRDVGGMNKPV
Test [3] addresses Mu-type opioid receptor (Rattus norvegicus, UniProt P33535). As to the kind of experiment: Compound was evaluated for the binding affinity towards mu opioid receptor in rat brain homogenates using [3H]DAMGO as radioligand. In kind it is tissue-based.
Test [4] deals with T1, Delta-type opioid receptor. As to the kind of experiment: Compound was evaluated for the binding affinity towards Opioid receptor delta 1 in rat brain homogenates using [3H]naltrindole as radioligand. In kind it is tissue-based.
For test [5], the species on record is Cavia porcellus. As to the kind of experiment: Compound was evaluated for the percent inhibition of twitch height at 10 uM concentration in guinea pig ileum assay. In kind it is functional.
In test [6] the target is Kappa-type opioid receptor (Mus musculus) (UniProt P33534).
Kappa-type opioid receptor (Mus musculus), sequence (P33534 whole entry): as the sequence (P34975 whole entry) above, with E11D, A17S, P51S, V308A counted along it
Description: Tested for antagonist activity against Opioid receptor kappa 1 in mouse vas deferens preparation by using C1977 as antagonist
The species named for test [7] is Mus musculus. As to the kind of experiment: Compound was evaluated for the percent inhibition of electrically evoked twitch height at 10 uM concentration in mouse vas deferens (MVD). In kind it is functional.
The species entered for test [8] is Cavia porcellus. Nature of the test: Compound was evaluated for the percent inhibition of electrically evoked twitch height at 10 uM concentration in guinea pig ileum (GPI). In kind it is functional.

SMILES strings stand for the structures.

T1 sequence (P33533 whole entry): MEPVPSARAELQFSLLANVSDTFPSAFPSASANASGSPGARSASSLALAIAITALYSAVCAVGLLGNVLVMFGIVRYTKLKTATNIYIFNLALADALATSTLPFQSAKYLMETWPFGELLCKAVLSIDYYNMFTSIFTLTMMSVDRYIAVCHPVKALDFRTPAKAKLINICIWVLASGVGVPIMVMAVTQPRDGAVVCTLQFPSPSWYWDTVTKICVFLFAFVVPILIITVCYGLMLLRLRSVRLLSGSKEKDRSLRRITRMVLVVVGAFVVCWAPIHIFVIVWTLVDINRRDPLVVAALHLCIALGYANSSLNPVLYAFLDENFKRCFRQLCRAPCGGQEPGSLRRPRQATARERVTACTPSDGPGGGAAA
Mu-type opioid receptor, sequence (P33535 whole entry): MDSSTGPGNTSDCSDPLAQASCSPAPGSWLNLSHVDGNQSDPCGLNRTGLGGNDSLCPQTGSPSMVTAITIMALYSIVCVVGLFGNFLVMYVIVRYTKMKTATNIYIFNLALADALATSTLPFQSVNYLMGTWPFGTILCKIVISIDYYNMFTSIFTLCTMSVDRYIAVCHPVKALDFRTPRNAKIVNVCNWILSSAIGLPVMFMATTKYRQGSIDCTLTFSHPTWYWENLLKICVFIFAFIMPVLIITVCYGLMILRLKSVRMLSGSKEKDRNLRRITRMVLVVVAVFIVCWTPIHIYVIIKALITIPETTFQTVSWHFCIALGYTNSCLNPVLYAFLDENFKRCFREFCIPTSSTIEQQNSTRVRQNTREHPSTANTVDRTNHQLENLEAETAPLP

Turning to `C=CCN1CC[C@]23c4c5ccc(O)c4O[C@@]2(C)c2[nH]c4ccccc4c2C[C@@]3(OCC)[C@H]1C5`, the Ki in test [1] came out at 29.9 nM; in test [2], 765 nM; in test [3], 667 nM; in test [4], 10.8 nM.

Consider `CCO[C@@]12Cc3c([nH]c4ccccc34)[C@]3(C)Oc4c(O)ccc5c4[C@@]31CCN(C)[C@@H]2C5`, for which the Ki worked out at 8.81 nM in test [1], 286 nM in test [2], 715 nM in test [3] and 5.75 nM in test [4]. In test [5], this molecule gave an inhibition at 10 µM of 21%.

For `Oc1ccc2c3c1O[C@H]1c4[nH]c5ccccc5c4C[C@@]4(O)[C@@H](C2)N(CC2CC2)CC[C@]314` [NALTRINDOLE], the Ki in test [1] is 0.09 nM; in test [4] it was 0.33 nM.

For `CCO[C@@]12Cc3c([nH]c4ccccc34)[C@]3(C)Oc4c(O)ccc5c4[C@@]31CCN(CC1CC1)C2C5`, the Ki came out at 14 nM in test [1], 59.2 nM in test [2], 38.7 nM in test [3] and 0.78 nM in test [4]. The Ke in test [6] is 529 nM. The values for the inhibition at 10 µM in test [7] and in test [8] were 23% and 32%, respectively.

In general, Ki refers to the dissociation constant of the complex between target and ligand, obtained from inhibition or displacement. Higher therefore signals weaker binding. In general, inhibition refers to the change of the read-out against control, counted positive when it falls.

(Values after ChEMBL document CHEMBL1130557, “Synthesis and biological evaluation of 14-alkoxymorphinans. 14.1 14-ethoxy-5-methyl substituted indolomorphinans with opioid receptor selectivity” (Bioorg Med Chem Lett, 1997).)
